The values below come from patent US11213506B2, “Combination therapy for the treatment or prevention of tumours” (QBIOTICS PTY LTD, priority 2017, dated 2022).

Experiment [1] has as its system A431 cells. As to the kind of experiment: IncuCyte cytotoxicity assay (propidium iodide). The class given is cell-based, human. The settings on record: 500 μM. On the procedure:
(§1) A431 (human epidermoid carcinoma), MM649 (human melanoma), B16-OVA (B16-F10 mouse melanoma cell line stably transfected with chicken ovalbumin), MM415 (human melanoma) and FaDu (human hypopharyngeal carcinoma) cells were cultured in RPMI-1640, 10% FCS (complete medium) at 37° C., 5% CO2 in a humidified incubator. All cell lines used in this study were confirmed as mycoplasma negative using MycoAlert (Lonza). STR profiling was also performed to confirm the identity of the human cell lines used.
(§2) Four cancer cell lines (A431, MM649 (human melanoma), FaDu (HNSCC) and MM415 (human melanoma) were assessed for their response to epoxytigliane treatment. Cells were plated at a density of 10,000 cells per well (100 μl of complete media) into clear bottom black 96-well plates (Corning, #3603). Following 24 h incubation, the media within each well was aspirated and replaced with 50 μl of fresh media containing 1 μg/ml propidium iodide (PI). Stock solutions (20 mg/ml in ethanol) of four epoxytiglianes (Compounds 1, 2, 3 and 4) were diluted to 2× final assay concentration (1 mM) in identical media and inserted into a U-bottom 96 well plate in preparation for transfer. 50 μl of dilution was added to the required wells and the resultant plates inserted into an Essen Biosciences IncuCyte in preparation for imaging. Images were acquired at various time points (30 min, 1 h and at hourly intervals) for a total of 24 h.

In the next experiment the test system is FaDu cells. As to the kind of experiment: IncuCyte cytotoxicity assay (propidium iodide). The class given is cell-based, human. The settings on record: 500 μM. On the procedure: as §1, §2
Another experiment has as its system MM415 cells. As to the kind of experiment: IncuCyte cytotoxicity assay (propidium iodide). The class given is cell-based, human. The settings on record: 500 μM. On the procedure:
as §1, §2

For experiment [2], the system named is MM649 cells. Description: IncuCyte cytotoxicity assay (propidium iodide). The class given is cell-based, human. The settings on record: 500 μM. On the procedure:
as §1, §2

Experiment [3] concerns B16-OVA cells. Description: Lactate dehydrogenase (LDH) release assay. The class given is cell-based, mouse. The settings on record: 300 μM and 500 μM. On the procedure: as §1
Measuring the release of LDH is a well-recognised assay to assess plasma membrane permeabilisation and detect cell death by necrosis (Chan et al. 2013). Three cell lines (A431, MM649 and B16-OVA) were used in these assays. Cells were plated at a density of 10,000 cells per well into clear 96-well plates (Corning, #3595; 100 μl of complete media) and the resultant plates incubated overnight as previously detailed. The following day, media was aspirated from each well and 50 μl of fresh medium was inserted. Stock solutions of Compound 1 were diluted to 2× final assay concentrations (1 mM and 600 μM) and 50 μl of these dilutions added to the required wells. […] OD490 nm and OD690 nm readings were recorded for each sample using a Hybrid Synergy H4 plate reader. Absorbance readings from drug treated samples were normalized to detergent treated controls to determine the % LDH release per well.

Experiment [4] concerns B16-OVA cells. Description: ATP release assay. The settings on record: both concentrations (500 and 300 μM), within 60 minutes. The class given is cell-based, mouse. On the procedure:
(§3) A431 (human epidermoid carcinoma), MM649 (human melanoma) and B16-OVA (B16-F10 mouse melanoma cell line stably transfected with chicken ovalbumin) were cultured in RPMI-1640, 10% FCS (complete medium) at 37° C., 5% CO2 in a humidified incubator. BMDCs were cultured in R10 media (RPMI, 10% FCS, 2 mM glutamine, 50 μM beta-mercaptoethanol, Pen/Strep). All cell lines used in this study were confirmed as mycoplasma negative using MycoAlert (Lonza). STR profiling was also performed to confirm the identity of the human cell lines used.
Cell lines were plated at a density of 10,000 cells per well into clear 96-well plates (Corning, #3595; 100 μl of complete media) and the resultant plates incubated overnight as previously detailed. The following day, media was aspirated from each well and 50 μl of fresh medium was inserted. Stock solutions of Compounds 1, 2, 3 and 4 were diluted to 2× final assay concentration (1 mM and 600 μM) and 50 μl of these dilutions added to the required wells. Ethanol only control solutions were also compiled and administered. At the indicated timepoints, 80 μl of media was removed, centrifuged at 1,200 rpm for 4 mins to pellet cell debris and 50 μl assayed for ATP using a bioluminescence based ATP assay kit (FLAA, Sigma-Aldrich). Relative luminescence units were recorded for each sample using a Hybrid Synergy H4 plate reader (BioTek).

For experiment [5], the system named is A431 cells. As to the kind of experiment: HMGB1 release assay (ELISA). The class given is cell-based, human. The settings on record: within 120 minutes. On the procedure: as §3
(§4) Cell lines (A431, MM649 and B16-OVA) were plated into T75 cm^2 flasks (Nunc) in 10 ml of complete media and cultured at 37° C., 5% CO2 until they reached 90% confluency. Compounds 1, 2, 3 and 4 were diluted in 5 ml of identical media to a final concentration of 500 and 300 μM and then administered to the cells. Several flasks were prepared such that a kinetic curve of HMGB1 release in response to drug treatment could be established. Ethanol only controls were also generated. At the required timepoint, media was removed from the flask into a 10 ml polypropylene tube that was placed on ice for 5 mins. […] OD450 nm values were determined using a Hybrid Synergy H4 plate reader (BioTek). Absorbance values from drug treated samples were normalized to vehicle treated samples to determine the fold increase in HMGB1 release in response to epoxytigliane treatment.
On the technique in general: In an ELISA, binding on a coated surface is turned into a signal by an enzyme label.

Experiment [6] has as its system MM649 cells. As to the kind of experiment: HMGB1 release assay (ELISA). The class given is cell-based, human. The settings on record: within 120 minutes. The protocol: as §3, §4
Experiment [7] concerns B16-OVA cells. Description: HMGB1 release assay (ELISA). The class given is cell-based, mouse. The settings on record: 120 minutes. The protocol: as §3, §4
Setting [8] is: after 120 minutes, majority of cells.
The mark [9] stands for this setting: differing extents and kinetics of onset.

Turning to `C/C=C(\C)C(=O)O[C@@H]1[C@@H](C)[C@@]2(O)[C@H]([C@@H]3C(C)(C)[C@]13OC(=O)[C@@H](C)CC)[C@@H]1O[C@]1(CO)[C@@H](O)[C@]1(O)C(=O)C(C)=C[C@H]12` [Compound 1, 12-tigloyl-13-(2-methylbutanoyl)-6,7-epoxy-4,5,9,12,13,20-hexahydroxy-1-tiglien-3-one], the “propidium iodide staining (loss of plasma membrane integrity)” value in the experiment with A431 cells [1] (setting [8]), in the experiment with FaDu cells (setting [8]), with MM415 cells (setting [8]) and in the experiment with MM649 cells [2] (setting [8]) was “strong red staining” in each case. The “cell morphology (cytoplasmic swelling, blistering)” value in the experiment on A431 cells [1] (setting [9]) was “significant cytoplasmic swelling and ‘blistering’”; with FaDu cells (setting [9]), “significant cytoplasmic swelling and ‘blistering’”; with MM415 cells (setting [9]) it was “significant cytoplasmic swelling and ‘blistering’”; with MM649 cells [2] (setting [9]), “significant cytoplasmic swelling and ‘blistering’”. In addition, the “LDH release compared to the controls” value with B16-OVA cells [3] was “significant release of LDH”. For the same molecule, the ATP release result with B16-OVA cells [4] is recorded as “significant release of ATP”. In addition, the “increase in HMBG1 release, normalised to vehicle treated cells” value in the experiment with A431 cells [5] and in the experiment with MM649 cells [6] was “up to 40%” throughout. The “fold increase in HMBG1 release, normalised to vehicle treated cells” value with B16-OVA cells [7] is “greater than 3 fold”.
